Results taken from PubChem BioAssay (NCI).
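In this assay, cells in 96-well plates receive the compound at five concentrations for 48 hours. Endpoints are linearly interpolated between the surrounding concentrations. TGI: concentration producing complete growth inhibition.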

Columns and labels:
Assay in all cases: NCI tumour cell line growth inhibition, 48 h
A498 renal = tested on: A498 renal
HOP-92 NSCLC = tested on: HOP-92 NSCLC
786-0 renal = tested on: 786-0 renal
HOP-62 NSCLC = tested on: HOP-62 NSCLC
DU-145 prostate = tested on: DU-145 prostate
OVCAR-3 ovarian = tested on: OVCAR-3 ovarian
CCRF-CEM leukemia = tested on: CCRF-CEM leukemia
NCI-H23 lung = tested on: NCI-H23 lung
LOX IMVI melanoma = tested on: LOX IMVI melanoma
HCC-2998 colon = tested on: HCC-2998 colon
NCI-H522 lung = tested on: NCI-H522 lung
OVCAR-4 ovarian = tested on: OVCAR-4 ovarian
MDA-MB-231 breast = tested on: MDA-MB-231 breast
SW-620 colon = tested on: SW-620 colon
OVCAR-5 ovarian = tested on: OVCAR-5 ovarian
HT29 colon = tested on: HT29 colon
MALME-3M melanoma = tested on: MALME-3M melanoma
UACC-257 melanoma = tested on: UACC-257 melanoma
CAKI-1 renal = tested on: CAKI-1 renal

| Structure (SMILES) | TGI (A498 renal) [µM] | TGI (HOP-92 NSCLC) [µM] | TGI (786-0 renal) [µM] | TGI (HOP-62 NSCLC) [µM] | TGI (DU-145 prostate) [µM] | TGI (OVCAR-3 ovarian) [µM] | TGI (CCRF-CEM leukemia) [µM] | TGI (NCI-H23 lung) [µM] | TGI (LOX IMVI melanoma) [µM] | TGI (HCC-2998 colon) [µM] | TGI (NCI-H522 lung) [µM] | TGI (OVCAR-4 ovarian) [µM] | TGI (MDA-MB-231 breast) [µM] | TGI (SW-620 colon) [µM] | TGI (OVCAR-5 ovarian) [µM] | TGI (HT29 colon) [µM] | TGI (MALME-3M melanoma) [µM] | TGI (UACC-257 melanoma) [µM] | TGI (CAKI-1 renal) [µM] |
| --- | --- | --- | --- | --- | --- | --- | --- | --- | --- | --- | --- | --- | --- | --- | --- | --- | --- | --- | --- |
| C=CCOc1ccc(/C(N=Nc2ccccc2)=N/NC(=O)c2ccccc2)cc1OC | > 100 | > 100 | > 100 | > 100 | > 100 | > 100 | > 100 | > 100 | > 100 | > 100 | > 100 | > 100 | > 100 | > 100 | > 100 | > 100 | > 100 | > 100 | > 100 |
| CN=CN(C)c1c2ccccc2nc2ccccc12 | > 100 | > 100 | > 100 | > 100 | > 100 | > 100 | > 100 | > 100 | > 100 | > 100 | > 100 | > 100 | > 100 | > 100 | > 100 | > 100 | > 100 | > 100 | > 100 |
| Cc1cccc2c(=O)c3c(O)cc(O)cc3[nH]c12 | > 10 | > 10 | > 10 | > 10 | > 10 | > 10 | > 10 | > 10 | > 10 | > 10 | > 10 | > 10 | > 10 | > 10 | > 10 | > 10 | > 10 | > 10 | > 10 |
| CCCCCCCCCCCCCCCCCCNc1ccn(C2OC(CO)C(O)C2O)c(=O)n1 (centres undefined) | > 100 | > 100 | > 100 | > 100 | > 100 | > 100 | 30.4 | > 100 | > 100 | > 100 | > 100 | > 100 | > 100 | > 100 | > 100 | > 100 | > 100 | > 100 | > 100 |
| COc1cc(NCc2ccc3nc(-c4ccccc4)c(N)nc3c2)cc(OC)c1OC | 75.3 | 78.1 | > 100 | > 100 | 99.6 | 82.7 | 77 | 62.3 | > 100 | > 100 | 62.3 | > 100 | > 100 | > 100 | > 100 | > 100 | 65.9 | 51.4 | 85.8 |
| COC(=O)C12OC(C)(C(CC(=O)OC(C)(C)C)C1=O)C1C(=O)N(c3ccccc3)C(=O)C12 (centres undefined) | > 100 | > 100 | > 100 | > 100 | > 100 | > 100 | > 100 | > 100 | > 100 | > 100 | > 100 | > 100 | > 100 | > 100 | > 100 | > 100 | > 100 | > 100 | > 100 |
